# Test results: US20240034730A1, “PYRAZOLO DERIVATIVES AS HUMAN DIHYDROOROTATE DEHYDROGENASE (HDHODH) INHIBITORS FOR USE AS ANTIVIRALS” (DRUG DISCOVERY AND CLINIC S.R.L., priority 2020, published 2024)
# Like-named read-outs stand apart in the source and are kept apart here.
# Legend:
# SARS-CoV-2 = conditions: literature value (refs 15, 16); read-out: EC50 SARS-CoV-2 from literature; cited from earlier work
# [1] = literature value (refs 15, 16); read-out: CC50 from literature (SARS-CoV-2); cited from earlier work
# RSV [2] = conditions: literature value (ref 17); read-out: EC50 RSV from literature; cited from earlier work
# HSV-1 = assay: Plaque reduction assay (PRA), HSV-1 in Vero cells; type: cell-based, Herpes simplex virus 1; conditions: Human alphaherpesvirus 1, Vero
# [3] = pH 7.4
# Description: (§1) Lipophilicity. The shake flask method was chosen to determinate logD7.4.
# (§2) The partition coefficients between n-octanol and PBS at pH 7.4 (log D^7.4) were obtained using the shake-flask technique at room temperature. In the shake-flask experiments, 50 mM of phosphate buffered saline pH 7.4 was used as the aqueous phase. The organic (n-octanol) and aqueous phases were mutually saturated by shaking for 4 h. The compounds were solubilized in the buffered aqueous phase at the highest concentration compatible with solubility and appropriate amounts of n-octanol were added. The two phases were shaken for about 20 min, by which time the partitioning equilibrium of solutes had been reached, and then centrifuged (10000 rpm, 10 min).
# HSV-2 = assay: Plaque reduction assay (PRA), HSV-2 in Vero cells; type: cell-based, Herpes simplex virus 2; conditions: Human alphaherpesvirus 2, Vero, read-out: EC50 HSV-2
# in vitro [4] = conditions: African green monkey
# [5] = log D (pH 7.4), shake-flask n-octanol/PBS; conditions: n-octanol/PBS pH 7.4, shake flask
# Description: as §1, §2
# recombinant hDHODH = recombinant hDHODH (Homo sapiens (Human), UniProt Q02127); assay: hDHODH inhibition assay (DCIP reduction); type: biochemical; conditions: recombinant GST-hDHODH; means ± SE of three independent experiments; read-out: hDHODH IC50 ± SE
# Chain of recombinant hDHODH (Q02127 whole entry): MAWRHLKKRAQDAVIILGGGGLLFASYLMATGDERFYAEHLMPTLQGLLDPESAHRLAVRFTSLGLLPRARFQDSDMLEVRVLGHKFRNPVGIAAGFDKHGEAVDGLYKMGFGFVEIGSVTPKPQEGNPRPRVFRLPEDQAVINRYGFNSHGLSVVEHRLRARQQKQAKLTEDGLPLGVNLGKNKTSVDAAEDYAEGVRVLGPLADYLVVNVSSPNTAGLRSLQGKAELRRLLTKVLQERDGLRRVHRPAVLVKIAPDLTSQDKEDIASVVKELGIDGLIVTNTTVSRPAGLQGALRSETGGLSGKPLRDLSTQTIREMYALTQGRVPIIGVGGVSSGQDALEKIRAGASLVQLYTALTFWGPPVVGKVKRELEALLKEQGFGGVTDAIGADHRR
# [6] = test system: Influenza A virus (A/Puerto Rico/8/34); assay: microbe, parasite or virus in culture; type: cell-based; conditions: PRA, MDCK cells
# in vitro [7] = type: cell-based; conditions: human
# hCoV-229E = assay: Anti-hCoV-229E activity in MRC5 fibroblasts (CPE, CellTiter-Glo); type: cell-based
# RSV [8] = assay: Plaque reduction assay (PRA), RSV in HEp-2 cells; type: cell-based; conditions: human respiratory syncytial virus, HEp-2, read-out: EC50 RSV
# [9] = Cytotoxicity on MDCK cells (Cell Titer Glo); type: cell-based, Canine; conditions: dog, read-out: CC50 (Influenza A row)
# hCoV-OC43 [10] = assay: Anti-hCoV-OC43 activity in HCT-8 cells, concentration-dependent
# [11] = Solubility assay at pH 7.4 in PBS; type: physicochemical; conditions: pH 7.4
# Description: Solubility assay at pH 7.4. […] The samples were shaken in an orbital shaker at 25° C. for 24 h. These suspensions were filtered through a PTFE 0.45 μm filter (VWR), and the solutions were chromatographically analyzed using a Perkin Elmer Ultra High Performance Liquid Chromatography (UHPLC) instrument, equipped with a reverse-phase (RP) C18 Phenomenex column (2.1×100 mm, 1.7 μm particle size). Gradient elution: the ratio of eluents A and B (0.1% trifluoroacetic acid in water and 0.1% trifluoroacetic acid in acetonitrile, respectively) changed linearly from 60% A-40% B to 0% A-100% B in 12 minutes, followed by 5 minutes in isocratic elution at 100% of eluent B and then 4 minutes in equilibration elution to reset the starting conditions. The flow rate was 0.5 mL/min. Standard injection volumes were either 2 or 4 μl for poorly soluble compounds. The detection system was a Perkin Elmer diode-array-detector. The wavelengths that were monitored for each compound were defined according to the compound's own absorption spectrum. Solubility, expressed as μM concentration of the saturated solution, was calculated via interpolation with external calibration curves that were obtained with solutions of each compound in acetonitrile.
# hCoV-OC43 [12] = assay: Focus forming reduction assay (FFRA), hCoV-OC43 in HCT-8 cells, single concentration; type: cell-based; conditions: Betacoronavirus 1, OC43, HCT-8, 72 h, HCT8 cells, 72 h p.i., vs DMSO control, read-out: % Decrease of hCoV-OC43 replication in presence of inhibitor 0.1 μM
structure (smiles),measurement,setting,value
O=c1nc(NO)ccn1[C@@H]1O[C@H](CO)[C@@H](O)[C@H]1O [EIDD-1931],EC50,SARS-CoV-2,300 nM
same,CC50,[1],> 10000 nM
same,EC50,RSV [2],690 nM
"CCCOc1cccc(-c2c(F)c(F)c(NC(=O)c3c(O)nn4ccccc34)c(F)c2F)c1 [Compound 17, 2-Hydroxy-N-(2,3,5,6-tetrafluoro-3′-propoxy-[1,1′-biphenyl]-4-yl) pyrazolo[1,5-a]pyridine-3-carboxamide]",EC50,HSV-1; read-out: EC50 HSV-1,90 nM
same,Log D7.4 ± SD,[3],3.28 ± 0.12
same,EC50,HSV-2,110 nM
same,CC50 at 3 days,in vitro [4],117000 nM
"O=C(Nc1ccc2c(c1)ncn2-c1ccccc1)c1c(O)nn2ccccc12 [Compound 21, 2-Hydroxy-N-(1-phenyl-1H-benzo[d]imidazol-5-yl)pyrazolo[1,5-a]pyridine-3-carboxamide]",melting point,,133.6 to 135.9 °C
same,Log D7.4 ± SD,[5],2.55 ± 0.04
same,IC50,recombinant hDHODH,> 10000 nM
"O=C(Nc1ccc2c(c1)nnn2-c1ccccc1)c1c(O)nn2ccccc12 [Compound 22, 2-Hydroxy-N-(1-phenyl-1H-benzo[d][1,2,3]triazol-5-yl)pyrazolo[1,5-a]pyridine-3-carboxamide]",melting point,,133.6 to 135.9 °C
same,Log D7.4 ± SD,[5],1.59 ± 0.03
same,IC50,recombinant hDHODH,7200 ± 1600 nM
"CC(F)(F)COc1cccc(-c2c(F)c(F)c(NC(=O)c3c(O)nn4ccccc34)c(F)c2F)c1 [Compound 40, N-(3′-(2,2-difluoropropoxy)-2,3,5,6-tetrafluoro-[1,1′-biphenyl]-4-yl)-2-hydroxypyrazolo[1,5-a]pyridine-3-carboxamide]",melting point,,229.6 to 231.7 °C
same,IC50,recombinant hDHODH,1.48 ± 0.2 nM
Cc1c(-c2ccc(-c3ccccc3F)cc2)nc2ccc(F)cc2c1C(=O)O [Brequinar],EC50,HSV-1; read-out: EC50 HSV-1,530 nM
same,EC50,[6],760 nM
same,EC50,HSV-2,1770 nM
same,CC50 at 72 h,in vitro [7],168000 nM
same,EC50,"hCoV-229E; Human coronavirus 229E, MRC5, MRC5 fibroblasts",42.7 ± 3 nM
same,EC50,hCoV-229E; MRC5 fibroblasts,22 nM
same,EC50,RSV [8],15 nM
same,Log D7.4 ± SD,[5],1.83 ± 0.02
same,CC50 at 3 days,in vitro [4],100000 nM
same,CC50 at 72 h,[9],5000 nM
same,EC50,hCoV-OC43 [10]; read-out: EC50 hCoV-OC43,42.7 nM
same,EC50,"hCoV-OC43 [10]; read-out: EC50 hCoV-OC43, listed as brequinar",22 ± 3 nM
"O=C(Nc1ccc2c(ccn2-c2ccccc2)c1)c1c(O)nn2ccccc12 [Compound 20, 2-Hydroxy-N-(1-phenyl-1H-indol-5-yl)pyrazolo[1,5-a]pyridine-3-carboxamide]",melting point,,133.6 to 135.9 °C
same,Log D7.4 ± SD,[5],2.89 ± 0.05
same,IC50,recombinant hDHODH,2760 ± 386 nM
"O=C(Nc1c(F)c(F)c(-c2ccccc2)c(F)c1F)c1c(O)nn2c1CCCC2 [Compound 5, 2-Hydroxy-N-(2,3,5,6-tetrafluoro-[1,1′-biphenyl]-4-yl)-4,5,6,7-tetrahydropyrazolo[1,5-a]pyridine-3-carboxamide]",Log D7.4 ± SD,[3],2.36 ± 0.02
same,Solubility in PBS,[11],<LOD
same,inhibition at 0.1 µM,hCoV-OC43 [12],31.3%
same,IC50,recombinant hDHODH,5.8 ± 0.4 nM
Nc1nc2c(ncn2COCCO)c(=O)[nH]1 [ACV],EC50,HSV-1; read-out: EC50 anti-HSV of reference drug,180 nM
CCC(CC)COC(=O)[C@H](C)N[P@](=O)(OC[C@H]1O[C@@](C#N)(c2ccc3c(N)ncnn23)[C@H](O)[C@@H]1O)Oc1ccccc1 [Remdesivir],CC50,[1],> 100000 nM
same,EC50,"hCoV-229E; Human coronavirus 229E, MRC5 fibroblasts",34.8 ± 5 nM
same,EC50,hCoV-OC43 [10]; read-out: EC50 hCoV-OC43,147 ± 34 nM
